Data on 14 molecules can be found in patent US20240239790A1, “7-Morpholino-1,6-Naphthyridin-5-yl Derivatives and Pharmaceutical Compositions Thereof Useful as DNA-PK Inhibitor” (adMare Therapeutics Society, priority 2021, published 2024).

Where two headings read alike, the source gives them in different places.

Data set [1] deals with T1, DNA-PK (Homo sapiens, UniProt P78527).
T1 construct: purchased Invitrogen PR9107A
As to the kind of experiment: DNA-PK Assay for Biochemical Enzymatic Inhibition (ADP Glo Kinase assay). Conditions: DNA-PK enzyme, Table 1. The procedure: A biochemical assay was performed to identify IC50 values against DNA-PK activity in a two-step reaction with a kinase reaction followed by ADP Glo™ Kinase assay Kit (Promega V9102).
Three-fold serial dilutions of compounds in DMSO were prepared in kinase assay buffer (50 mM HEPES pH 7.5, 20 mM MgCl2, 100 mM KCl, 50 μM DTT, 10 μg/ml calf thymus DNA, 0.01% Tween 20). Kinase assay buffer was used to prepare compound treatments to 0.02% DMSO (dimethyl sulphoxide) content. DMSO controls were prepared to produce a maximum and minimum luminescence signal for normalization. Substrate (Anaspec, AS-60210-5) and ATP (Promega V9102) and ATP mix was prepared by dilution in kinase assay buffer for 434.4 μM and 64.4 μM final assay concentrations, respectively. Compounds and control were added to 25 ng DNA-PK enzyme (Invitrogen, PR9107A) diluted in kinase buffer in assay plate (Corning 267459) and incubated for 15 minutes at room temperature prior to addition of substrate and ATP mix.
Throughout the assay, each time a reagent was added to the microplate, it was centrifuged for 1 minute at 1300 rcf. All reagents were added, and incubations carried out at room temperature. The reaction was then incubated for 60 minutes. ADP-ATP standards at 0, 4, 10, 40, 80, and 100% ADP (prepared as specified in the ADP Glo™ Kinase assay kit) were also added to the microplate at a volume equal to the total kinase reaction. The ADP Glo™ Kinase Assay kit was then used to quantify DNA-PK activity: following the 60-minute incubation, a 1:1 volume of ADP Glo reagent was added to all wells, then following a further 45-minute incubation, a 1:1 volume of Kinase Detection Reagent was added to all wells. After this two-step assay, plates were incubated in a Synergy-Neo2 plate reader for 30 minutes with gentle shaking, followed by endpoint luminescent read Luminescence data was normalized by subtracting the background signal and expressing all background-adjusted values as a percentage of the average maximum signal. The data was then expressed as percent inhibition by subtracting from 100% (i.e. maximum luminescent signal will be 0% inhibition) and the resulting data plotted against ten concentration points on a logarithmic scale, using GraphPad Prism. Non-linear regression analysis was performed on each concentration response curve and the log [inhibitor] vs response—variable slope (four parameters) equation was selected to generate IC50 values.
(ADP-Glo turns the ADP formed in a reaction into a luminescent signal.)

Data set [2] addresses T2, DNA-PK phosphorylation at Serine 2056 (Homo sapiens, UniProt P78527).
T2 construct: FaDu cells were purchased from ATCC; host or cells: FaDu
Put plainly: Cellular Assay for Inhibition of DNA-PK Phosphorylation at Serine 2056 in FaDu cells (sandwich ELISA, neocarzinostatin). The class given is cell-based. The following applies: pSer2056 DNA-PK, Table 3. An outline of the steps: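 pSer2056 and total DNA-PK were measured by sandwich ELISA in BCA-normalised FaDu lysates. Cells had 1 h compound exposure (0.3% DMSO), then 2 h with 1 μg/mL final neocarzinostatin. IC50 was fitted (variable slope) to % inhibition scaled against NCS-stimulated and DMSO-only controls.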
On the technique in general: ELISA stands for enzyme-linked immunosorbent assay.

Data set [3] has as its system FaDu cell line. Put plainly: Prodrug Activation in Hypoxic Stirred Tumour Cell Suspensions. The following applies: 10 μM, 4 hours.
The test system of data set [4] is pH2AX induction in HCT116 ATM-/- multicellular tumour spheroids. As to the kind of experiment: Prodrug Radiation Sensitization in Multicellular Tumour Spheroids, inhibition of pH2AX induction following radiation. Type of data set: cell-based. Conditions: Homo sapiens, HCT-116, 20 Gy. Put shortly: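 Endpoint: pH2AX (ser 139) or pDNA-PK (ser 2056) in cryosections fixed 1 or 2 h after 20 Gy, comparing oxygenated outer with hypoxic inner layers. Spheroids of ~0.5 mm (HCT116, FaDu; ATM-deficient cells used) held at 20% or 5% O2, 37 °C, stirred. Prodrug range 3.5 nM–10 μM.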

[5] abbreviates: 5% O2, inner layers, read-out: Prodrug 5% O2 Inner layers EC50.
The mark [6] stands for this setting: 5% O2, outer layers, read-out: Prodrug 5% O2 Outer layers EC50.
[7] abbreviates: 20% O2, outer layers, read-out: Prodrug 20% O2 Outer layers EC50.

Consider `FC1(F)CN(c2cc3ncccc3c(O[C@H]3CC[C@@H](n4ccnc4)CC3)n2)CC(F)(F)O1` [Compound 13, 4-(5-(((1s,4s)-4-(1H-imidazol-1-yl)cyclohexyl)oxy)-1,6-naphthyridin-7-yl)-2,2,6,6-tetrafluoromorpholine], for which the concentration for half-maximal inhibition (IC50) in data set [1] lay in the range of 0.01 to 0.15 µM.

`CN(C)CC(=O)N[C@H]1CC[C@@H](Oc2nc(N3CCOCC3)cc3ncccc23)CC1` [Compound 106, 2-(Dimethylamino)-N-((1s,4s)-4-((7-morpholino-1,6-naphthyridin-5-yl)oxy)cyclohexyl)acetamide]: the IC50 in data set [1] lay in the range of 0.01 to 0.15 µM.

In the case of `CN(C)C(=N[C@H]1CC[C@@H](Oc2nc(N3CCOCC3)cc3ncccc23)CC1)N(C)C` [Compound 129, 1,1,3,3-tetramethyl-2-((1s,4s)-4-((7-morpholino-1,6-naphthyridin-5-yl)oxy)cyclohexyl)guanidine], the half-inhibitory concentration (IC50) in data set [1] is 0.01 to 0.15 µM.

Turning to `O=C(NC1CCOCC1)[C@H]1CC[C@@H](Oc2nc(N3CCOCC3)cc3ncccc23)CC1` [Compound 154b, (1S,4S)-4-((7-morpholino-1,6-naphthyridin-5-yl)oxy)-N-(tetrahydro-2H-pyran-4-yl)cyclohexane-1-carboxamide], the IC50 in data set [1] lay in the range of 0.01 to 0.15 µM.

For `CC(C)(O)C#Cc1cnc2cc(N3CCOCC3)nc(O[C@H]3CC[C@@H](n4ccnc4)CC3)c2c1` [Compound 159, 4-(5-(((1s,4s)-4-(1H-imidazol-1-yl)cyclohexyl)oxy)-7-morpholino-1,6-naphthyridin-3-yl)-2-methylbut-3-yn-2-ol], the IC50 in data set [1] is 0.01 to 0.15 µM.

In the case of `CCNC(=O)c1cnc2cc(N3CCOCC3)nc(O[C@H]3CC[C@@H](n4ccnc4)CC3)c2c1` [Compound 168, 5-(((1s,4s)-4-(1H-imidazol-1-yl)cyclohexyl)oxy)-N-ethyl-7-morpholino-1,6-naphthyridine-3-carboxamide], the IC50 in data set [1] fell in the range of 0.01 to 0.15 µM.

The molecule `Cn1c(COc2cnc3cc(N4CCOCC4)nc(O[C@H]4CC[C@@H](Nc5cncc(C(F)(F)F)n5)CC4)c3c2)cnc1[N+](=O)[O-]` [LFA2097, N-[4-[[3-[(3-methyl-2-nitro-imidazol-4-yl)methoxy]-7-morpholino-1,6-naphthyridin-5-yl]oxy]cyclohexyl]-6-(trifluoromethyl)pyrazin-2-amine] registered an IC50 in data set [2] of 10 to 30 µM. Besides, the “Fraction of prodrug converted to active form, Hypoxic 0.2% O2” value (“Fraction … Hypoxic 0.2% O2” below) in data set [3] is on record as “C (C is 0.02 to 0.05)”. Besides, the “Fraction of prodrug converted to active form, Oxic 5% O2” value (“Fraction … Oxic 5% O2” below) in data set [3] is listed as “D (D is 0 to 0.02)”. The concentration giving a half-maximal response (EC50) in data set [4] (setting [5]), in data set [4] (setting [6]) and in data set [4] (setting [7]) was 10 to 100 µM throughout.

Molecule `Cc1cc(C)nc(N[C@H]2CC[C@@H](Oc3nc(N4CCOCC4)cc4ncc(N(Cc5cnc([N+](=O)[O-])n5C)S(C)(=O)=O)cc34)CC2)n1` [LFA2098, N-[5-[4-[(4,6-dimethylpyrimidin-2-yl)amino]cyclohexoxy]-7-morpholino-1,6-naphthyridin-3-yl]-N-[(3-methyl-2-nitro-imidazol-4-yl)methyl]methanesulfonamide] registered a half-maximal inhibitory concentration (IC50) in data set [2] of 0.1 to 1 µM. Further, the “Fraction … Hypoxic 0.2% O2” value in data set [3] was “B (B is 0.05 to 0.15)”. Also, in data set [3], the “Fraction … Oxic 5% O2” value is on record as “D (D is 0 to 0.02)”. For the same molecule, the EC50 in data set [4] (setting [5]), in data set [4] (setting [6]) and in data set [4] (setting [7]) was 1 to 10 µM throughout.

Consider `CC(c1cnc([N+](=O)[O-])n1C)N(c1cnc2cc(N3CCOCC3)nc(O[C@H]3CC[C@@H](Nc4cncc(C(F)(F)F)n4)CC3)c2c1)S(C)(=O)=O` (stereo partly drawn) [LFA2099, N-[1-(3-methyl-2-nitro-imidazol-4-yl)ethyl]-N-[7-morpholino-5-[4-[[6-(trifluoromethyl)pyrazin-2-yl]amino]cyclohexoxy]-1,6-naphthyridin-3-yl]methanesulfonamide], for which the IC50 in data set [2] is 1 to 10 µM. Also, in data set [3], the “Fraction … Hypoxic 0.2% O2” value is recorded as “B (B is 0.05 to 0.15)”. Besides, in data set [3], the “Fraction … Oxic 5% O2” value was “D (D is 0 to 0.02)”. The half-maximal effective concentration (EC50) in data set [4] (setting [5]), in data set [4] (setting [6]) and in data set [4] (setting [7]) was 10 to 100 µM throughout.

The molecule `CC(c1cnc([N+](=O)[O-])n1C)N(c1cnc2cc(N3CCOCC3)nc(O[C@H]3CC[C@@H](Nc4nccnc4C#N)CC3)c2c1)S(C)(=O)=O` (stereo partly drawn) [LFA2100, N-[5-[4-[(3-cyanopyrazin-2-yl)amino]cyclohexoxy]-7-morpholino-1,6-naphthyridin-3-yl]-N-[1-(3-methyl-2-nitro-imidazol-4-yl)ethyl]methanesulfonamide] displayed an IC50 in data set [2] of 10 to 30 µM. In data set [3], the “Fraction … Hypoxic 0.2% O2” value is “C (C is 0.02 to 0.05)”. For the same molecule, the “Fraction … Oxic 5% O2” value in data set [3] is “D (D is 0 to 0.02)”. For the same molecule, the results for the EC50 in data set [4] (setting [5]), in data set [4] (setting [6]) and in data set [4] (setting [7]) were 0.01 to 0.5 µM, 1 to 10 µM and 10 to 100 µM, respectively.

With `Cn1c(CN(c2cnc3cc(N4CCOCC4)nc(O[C@H]4CC[C@@H](Nc5cncc(C(F)(F)F)n5)CC4)c3c2)S(C)(=O)=O)cnc1[N+](=O)[O-]` [LFA2101, N-[(3-methyl-2-nitro-imidazol-4-yl)methyl]-N-[7-morpholino-5-[4-[[6-(trifluoromethyl)pyrazin-2-yl]amino]cyclohexoxy]-1,6-naphthyridin-3-yl]methanesulfonamide], the IC50 in data set [2] lay within 10 to 30 µM. In addition, in data set [3], the “Fraction … Hypoxic 0.2% O2” value is reported as “C (C is 0.02 to 0.05)”. In addition, the “Fraction … Oxic 5% O2” value in data set [3] is recorded as “D (D is 0 to 0.02)”. For the same molecule, the 50% effective concentration (EC50) in data set [4] (setting [5]), in data set [4] (setting [6]) and in data set [4] (setting [7]) was 10 to 100 µM throughout.

The molecule `Cn1c(CN(c2cnc3cc(N4CCOCC4)nc(O[C@H]4CC[C@@H](Nc5nccnc5C#N)CC4)c3c2)S(C)(=O)=O)cnc1[N+](=O)[O-]` [LFA2102, N-[5-[4-[(3-cyanopyrazin-2-yl)amino]cyclohexoxy]-7-morpholino-1,6-naphthyridin-3-yl]-N-[(3-methyl-2-nitro-imidazol-4-yl)methyl]methanesulfonamide] showed a half-inhibitory concentration (IC50) in data set [2] of 10 to 30 µM. For the same molecule, in data set [3], the “Fraction … Hypoxic 0.2% O2” value is listed as “C (C is 0.02 to 0.05)”. Further, the “Fraction … Oxic 5% O2” value in data set [3] is “D (D is 0 to 0.02)”. Besides, the half-maximal effective concentration (EC50) in data set [4] (setting [5]) lay in the range of 0.01 to 0.5 µM; in data set [4] (setting [6]), 1 to 10 µM; in data set [4] (setting [7]), 1 to 10 µM.

The molecule `Cn1c(CN(c2cnc3cc(N4CCOCC4)nc(O[C@H]4CC[C@@H](Nc5cnc(C#N)cn5)CC4)c3c2)S(C)(=O)=O)cnc1[N+](=O)[O-]` [LFA2103, N-[5-[4-[(5-cyanopyrazin-2-yl)amino]cyclohexoxy]-7-morpholino-1,6-naphthyridin-3-yl]-N-[(3-methyl-2-nitro-imidazol-4-yl)methyl]methanesulfonamide] displayed an IC50 in data set [2] of 1 to 10 µM. In addition, the “Fraction … Hypoxic 0.2% O2” value in data set [3] is reported as “B (B is 0.05 to 0.15)”. In addition, the “Fraction … Oxic 5% O2” value in data set [3] was “D (D is 0 to 0.02)”. For the same molecule, the EC50 in data set [4] (setting [5]) lay within 0.01 to 0.5 µM; in data set [4] (setting [6]) it was 1 to 10 µM; in data set [4] (setting [7]), 10 to 100 µM.

In data set [2], `Cc1ccc(N[C@H]2CC[C@@H](Oc3nc(N4CCOCC4)cc4ncc(OC(C)c5cnc([N+](=O)[O-])n5C)cc34)CC2)nc1` (stereo partly drawn) [LFA2105, 5-methyl-N-[4-[[3-[1-(3-methyl-2-nitro-imidazol-4-yl)ethoxy]-7-morpholino-1,6-naphthyridin-5-yl]oxy]cyclohexyl]pyridin-2-amine] registered a half-maximal inhibitory concentration (IC50) of 10 to 30 µM. The “Fraction … Hypoxic 0.2% O2” value in data set [3] is on record as “A (A is 0.15 to 1)”. The “Fraction … Oxic 5% O2” value in data set [3] is “D (D is 0 to 0.02)”. The concentration giving a half-maximal response (EC50) was in the range of 1 to 10 µM in data set [4] (setting [5]), 1 to 10 µM in data set [4] (setting [6]) and 10 to 100 µM in data set [4] (setting [7]).

As usually defined, the IC50 is the point on the concentration scale where inhibition reaches its midpoint. One may read the EC50 as the concentration that produces a half-maximal response.
